Data: patent publication US12227539B2, “Mogroside compounds and uses thereof” (Firmenich SA, priority 2019, dated 2025)

Assays:
[1] = Sensory profile scores (Sweet, Licorice, Lingering) compared with mogroside V
[2] = Tasting of a sample of the purified compound (taste perceived, sweetness relative to sucrose); details: for sweetness relative to sucrose: approximate
Text: The sweetness intensity perceived was weaker than the sweetness intensity perceived with mogroside V. However, the perception of licorice and lingering profile of isomogroside IVe was weaker than that of mogroside V (see table on following page).

[3] = tasted at 250 ppm in a water base
[4] = tasted at a concentration of 250 ppm

| Compound | sweetness intensity perceived compared with mogroside V ([1]; 250 ppm in a water base) | Licorice ([1]; Dosage 250 ppm) | Lingering ([1]; Dosage 250 ppm) | Sweet ([1]; Dosage 250 ppm) | sweetness relative to sucrose [2, 3] | taste perceived [2, 4] | sensory profile compared with mogroside V ([1]; 250 ppm in a water base) | sensory profile compared with mogroside V ([1]; 500 ppm in a water base) | Licorice ([1]; Dosage 500 ppm) | Lingering ([1]; Dosage 500 ppm) | Sweet ([1]; Dosage 500 ppm) | sweetness relative to sucrose ([2]; tasted at 500 ppm in a water base) | taste perceived ([2]; tasted at a concentration of 500 ppm in a water base) |
| --- | --- | --- | --- | --- | --- | --- | --- | --- | --- | --- | --- | --- | --- |
| C[C@H](CC[C@@H](O[C@@H]1O[C@H](CO[C@@H]2O[C@H](CO)[C@@H](O)[C@H](O)[C@H]2O)[C@@H](O)[C@H](O)[C@H]1O[C@@H]1O[C@H](CO)[C@@H](O[C@@H]2O[C@H](CO)[C@@H](O)[C@H](O)[C@H]2O)[C@H](O)[C@H]1O)C(C)(C)O)[C@H]1CC[C@@]2(C)[C@@H]3CC=C4[C@@H](CC[C@H](O[C@@H]5O[C@H](CO[C@@H]6O[C@H](CO)[C@@H](O)[C@H](O)[C@H]6O)[C@@H](O)[C@H](O)[C@H]5O)C4(C)C)[C@]3(C)[C@H](O)C[C@]12C [Compound 12a, (1S,4R,9beta,11alpha,24R)-1-{[6-O-(beta-D-glucopyranosyl)-beta-D-glucopyranosyl]oxy}-11,25-dihydroxy-9,10,14-trimethyl-4,9-cyclo-9,10-secocholest-5-en-24-yl beta-D-glucopyranosyl-(1→6)-[beta-D-glucopyranosyl-(1→4)-beta-D-glucopyranosyl-(1→2)]-beta-D-glucopyranoside] | weaker | 3.1 | 3.0 | 3.4 | 50-100 times sweeter than sucrose | moderate sweet taste |  |  |  |  |  |  |  |
| C[C@H](CC[C@@H](O[C@@H]1O[C@H](CO[C@@H]2O[C@H](CO[C@@H]3O[C@H](CO)[C@@H](O)[C@H](O)[C@H]3O)[C@@H](O)[C@H](O)[C@H]2O)[C@@H](O)[C@H](O)[C@H]1O[C@@H]1O[C@H](CO)[C@@H](O)[C@H](O)[C@H]1O)C(C)(C)O)[C@H]1CC[C@@]2(C)[C@@H]3CC=C4[C@@H](CC[C@H](O[C@@H]5O[C@H](CO[C@@H]6O[C@H](CO)[C@@H](O)[C@H](O)[C@H]6O)[C@@H](O)[C@H](O)[C@H]5O)C4(C)C)[C@]3(C)[C@H](O)C[C@]12C [Compound 13a, (1S,4R,9beta,11alpha,24R)-1-{[6-O-(beta-D-glucopyranosyl)-beta-D-glucopyranosyl]oxy}-11,25-dihydroxy-9,10,14-trimethyl-4,9-cyclo-9,10-secocholest-5-en-24-yl beta-D-glucopyranosyl-(1→2)-[beta-D-glucopyranosyl-(1→6)-beta-D-glucopyranosyl-(1→6)]-beta-D-glucopyranoside] |  | 4.4 | 4.2 | 4.6 | 100-150 times sweeter than sucrose | moderate sweet taste | similar |  |  |  |  |  |  |
| C[C@H](CC[C@@H](O[C@@H]1O[C@H](CO)[C@@H](O)[C@H](O)[C@H]1O[C@@H]1O[C@H](CO)[C@@H](O)[C@H](O)[C@H]1O)C(C)(C)O)[C@H]1CC[C@@]2(C)[C@@H]3CC=C4[C@@H](CC[C@H](O[C@@H]5O[C@H](CO[C@@H]6O[C@H](CO)[C@@H](O)[C@H](O)[C@H]6O)[C@@H](O)[C@H](O)[C@H]5O)C4(C)C)[C@]3(C)CC[C@]12C [Compound 15a, (1S,4S,9beta,24R)-1-{[6-O-(beta-D-glucopyranosyl)-beta-D-glucopyranosyl]oxy}-25-hydroxy-9,10,14-trimethyl-4,9-cyclo-9,10-secocholest-5-en-24-yl 2-O-beta-D-glucopyranosyl-beta-D-glucopyranoside] |  |  |  |  |  |  |  | similar | 6.8 | 6.3 | 7.0 | 150-300 times sweeter than sucrose | strong sweet taste |
